# The supplement of paper PMC10307832
# Experiments:
# Assay in all cases: relative viability (nuclei count vs DMSO), 5 days (fraction); higher = more cells survive
# [1] = compound: O=C(CCCCCCNC(=O)c1cnc(N(c2ccccc2)c2ccccc2)nc1)NO [Ricolinostat] + O=C(c1cc(Cc2n[nH]c(=O)c3ccccc23)ccc1F)N1CCN(C(=O)C2CC2)CC1 [Olaparib] (partner 8 µM)
# Summary of the method: (§1)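 Values are medians from duplicate plates. Each reflects relative viability, defined as the nuclei count of treated wells over that of vehicle wells. Lung cancer cell lines in 1536-well plates were pin-tool dosed one day after seeding with one drug alone or with a fixed anchor-drug dose plus five library-drug doses (not always all listed) in √10 steps, then fixed, stained and imaged at 4× after 5 days.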
# [2] = compound: O=C(CCCCCCNC(=O)c1cnc(N(c2ccccc2)c2ccccc2)nc1)NO [Ricolinostat] + CC(C)C[C@H](NC(=O)[C@H](Cc1ccccc1)NC(=O)c1cnccn1)B(O)O [Bortezomib] (partner 0.002 µM)
# Summary of the method: as §1
# [3] = compound: O=C(CCCCCCNC(=O)c1cnc(N(c2ccccc2)c2ccccc2)nc1)NO [Ricolinostat] + CS(=O)(=O)N1CCN(Cc2cc3nc(-c4cccc5[nH]ncc45)nc(N4CCOCC4)c3s2)CC1 [Pictilisib] (partner 1 µM)
# Summary of the method: as §1
# [4] = compound: C1=CC=C(C(=C1)C2=CC=C(C=C2)C3=CSC4=C3C(=C(C(=O)N4)C#N)O)O + Cc1cc(Nc2cc(N3CCN(C)CC3)nc(Sc3ccc(NC(=O)C4CC4)cc3)n2)n[nH]1 [Tozasertib] (partner 0.1 µM)
# Summary of the method: as §1
Cell Line,relative viability ([1]; first compound 0.08 µM),relative viability ([1]; first compound 0.253 µM),relative viability ([1]; first compound 0.8 µM),relative viability ([1]; first compound 2.53 µM),relative viability ([2]; first compound 0.08 µM),relative viability ([2]; first compound 0.253 µM),relative viability ([2]; first compound 0.8 µM),relative viability ([2]; first compound 2.53 µM),relative viability ([3]; first compound 0.08 µM),relative viability ([3]; first compound 0.253 µM),relative viability ([3]; first compound 0.8 µM),relative viability ([3]; first compound 2.53 µM),relative viability ([4]; first compound 0.08 µM),relative viability ([4]; first compound 0.253 µM),relative viability ([4]; first compound 0.8 µM),relative viability ([4]; first compound 2.53 µM),relative viability ([4]; first compound 8 µM)
NCI-H441,0.575,0.471,0.478,0.455,0.596,0.341,0.342,0.25,0.42,0.55,0.426,0.453,0.801,0.855,0.815,0.61,0.768
NCI-H460,0.362,0.341,0.377,0.159,0.895,1.01,1.11,1,0.332,0.393,0.308,0.269,0.395,0.429,0.345,0.461,0.296
NCI-H520,,0.305,0.343,0.271,,0.609,0.414,0.103,,0.218,0.272,0.23,0.409,0.417,0.432,0.367,0.441
NCI-H596,0.699,0.676,0.693,0.526,0.896,1.09,1.13,,0.399,0.399,0.378,0.335,0.888,0.724,1.09,0.89,0.655
NCI-H647,0.446,0.521,0.465,0.261,0.877,1.06,0.948,0.421,,0.42,0.415,0.456,0.2,0.608,0.366,0.314,0.246
NCI-H650,0.376,0.34,0.278,0.22,,0.788,0.544,0.23,,0.766,0.77,0.506,0.62,0.821,0.637,0.837,0.683
NCI-H661,0.654,0.75,0.706,0.558,,0.743,0.997,1.19,,0.412,0.422,0.727,0.359,0.386,0.357,0.356,0.369
NCI-H727,0.827,0.624,0.75,0.611,0.554,1.1,0.811,0.911,0.305,0.409,0.623,0.291,0.537,0.604,0.762,0.702,0.53
NCI-H838,0.802,0.788,0.787,0.404,0.767,0.973,0.943,0.756,0.326,0.563,0.613,0.531,0.264,0.271,0.285,0.309,0.268
NCI-H1355,0.647,0.723,0.707,0.688,,1.23,1.17,1.06,,0.418,0.419,0.316,0.478,0.516,0.547,0.518,0.476
NCI-H1437,0.628,0.595,0.598,0.409,0.561,0.513,0.479,0.256,0.38,0.414,0.36,0.223,0.367,0.409,0.44,0.438,0.382
NCI-H1650,0.767,0.632,0.823,0.579,0.184,0.195,0.193,0.205,0.423,0.523,0.395,0.347,0.325,0.386,0.417,0.442,0.486
NCI-H1651,0.194,0.174,0.184,0.164,0.941,0.865,0.918,0.984,0.612,0.55,0.571,0.44,0.819,0.714,0.792,0.716,0.607
NCI-H1666,0.708,0.709,0.695,0.829,0.598,0.97,0.724,0.579,0.445,0.52,0.378,0.305,0.556,0.658,0.577,0.598,0.553
NCI-H1734,0.61,0.642,0.601,0.324,0.758,0.954,0.958,0.827,0.371,0.467,0.495,0.402,0.266,0.238,0.279,0.288,0.216
NCI-H1755,0.826,0.809,0.814,0.739,0.929,,0.978,0.926,0.278,,0.402,0.312,0.735,0.571,0.544,0.629,0.728
NCI-H1915,0.255,0.237,0.248,0.201,0.932,1.01,0.903,0.98,0.852,0.928,0.869,0.729,0.428,0.484,,0.491,0.382

Cell Line,relative viability ([1]; first compound 0.08 µM),relative viability ([1]; first compound 0.253 µM),relative viability ([1]; first compound 0.8 µM),relative viability ([1]; first compound 2.53 µM),relative viability ([2]; first compound 0.08 µM),relative viability ([2]; first compound 0.253 µM),relative viability ([2]; first compound 0.8 µM),relative viability ([2]; first compound 2.53 µM),relative viability ([3]; first compound 0.08 µM),relative viability ([3]; first compound 0.253 µM),relative viability ([3]; first compound 0.8 µM),relative viability ([3]; first compound 2.53 µM),relative viability ([4]; first compound 0.08 µM),relative viability ([4]; first compound 0.253 µM),relative viability ([4]; first compound 0.8 µM),relative viability ([4]; first compound 2.53 µM),relative viability ([4]; first compound 8 µM)
NCI-H1975,0.85,0.768,0.713,0.643,0.406,0.357,,0.233,0.283,0.309,,0.231,0.54,0.742,0.826,1.02,0.651
NCI-H1993,0.883,0.875,1.02,0.892,0.861,1,1.25,1.15,0.645,0.889,0.882,0.239,0.592,0.524,0.534,0.592,0.571
NCI-H2009,0.67,0.663,0.623,0.457,0.834,0.979,0.93,0.763,0.498,0.829,0.757,0.85,0.789,0.706,0.719,0.73,0.683
NCI-H2023,0.485,0.447,0.407,0.239,0.822,1.09,0.88,0.839,0.162,0.277,0.183,0.185,0.257,0.38,0.38,0.476,0.439
NCI-H2085,,0.734,0.764,0.791,,1.15,0.969,0.765,,0.447,0.431,0.416,0.8,0.801,0.874,0.749,0.74
NCI-H2087,0.502,0.588,0.671,0.357,0.895,0.54,0.806,0.456,0.806,0.828,0.867,0.87,0.213,0.258,0.225,0.244,0.2
NCI-H2126,0.789,0.889,0.93,0.851,0.95,1.07,1.1,1.02,0.393,0.497,0.459,0.383,0.687,0.956,0.893,0.923,0.809
NCI-H2228,0.647,0.548,0.476,0.45,0.789,0.807,0.907,0.594,0.309,0.407,0.355,0.24,0.288,0.244,0.245,0.297,0.277
NCI-H2347,0.51,0.604,0.612,0.586,,1.1,0.979,0.713,0.451,0.628,0.884,0.644,0.574,0.461,1.06,0.526,0.583
NCI-H2405,0.705,0.858,0.814,0.937,0.816,0.952,0.932,0.992,0.389,0.494,0.412,0.277,0.718,0.797,0.733,0.725,0.704
NCI-H3122,0.571,0.618,0.54,0.55,0.914,1.08,0.987,1.09,0.533,0.606,0.696,0.866,0.355,0.451,0.451,0.507,0.419
PC-3 [JPC-3],0.865,1.06,1.07,0.971,0.832,0.791,0.791,0.829,0.669,0.808,0.673,0.456,0.606,0.401,0.928,0.876,0.716
PC-14,0.265,0.257,0.267,0.199,0.812,0.844,0.872,0.692,0.536,0.681,0.653,0.321,0.63,0.753,0.542,0.556,0.436
RERF-LC-KJ,0.897,0.894,0.773,0.582,1.15,1,1.11,1.02,0.755,0.637,0.422,0.467,0.488,0.474,0.52,0.527,0.463
SK-LU-1,0.371,0.478,0.362,0.382,0.895,1.04,0.916,0.46,0.478,0.469,0.423,0.485,0.319,0.265,0.293,0.379,0.306
SW 1573,0.436,0.508,0.534,0.404,0.834,1.13,1.06,1.13,0.454,0.504,0.542,0.475,0.175,0.205,0.203,0.152,0.199
UMC-11,0.345,0.339,0.323,0.198,0.571,0.795,0.678,0.372,0.645,0.859,0.723,0.24,0.203,0.227,0.218,0.321,0.219
